According to PMC11845477, “Exploring the principles behind antibiotics with limited resistance” (Nature Communications, 2025):
Where a SMILES comes first, the peptide text is derived from it. Bridges are numbered along the chain shown (N, C = ends). [ ]: non-standard residue; d: D form. The star is where a group is joined. X1 = NC[C@@H](CC(=O)*)c1cccc(Cl)c1; Dab = NCC[C@H](N)C(=O)O; Dap = NC[C@H](N)C(=O)O

How the values were obtained:
[1] = test system: polymyxin B-resistant lines of E. coli (EC-SEN); assay: Cross-resistance of polymyxin B resistant evolved lines, relative MIC; format: cell-based, Escherichia coli
Method: 3 independently evolved lines from each investigated species were studied, including E. coli (EC), K. pneumoniae (KP), A. baumannii (AB), and P. aeruginosa (PA). […] The distances between antibiotics were computed using the Euclidean distance method based on the log-transformed MIC values. The clustering was performed using the complete linkage method. […] For detailed information on antibiotic and bacterial strain abbreviations, see Supplementary Data 1. Source data are provided as a Source Data file.
(§1) A robotic liquid handling system was used to automatically prepare a 11 to 16-step serial dilution in 384-well microtiter plates (Greiner). A final concentration of 5 × 10^5 bacterial cells per mL were inoculated into each well containing 60 µL MHB medium. Bacterial cultures were incubated at 37 °C with continuous shaking (Infors shaker, 900 rpm with 3 mm throw) for 18 hours (2 replicates from each). Cell growth was monitored by measuring the optical density (OD600 values, using Biotek Synergy microplate reader). MIC was defined as the antibiotic concentration of complete growth inhibition (i.e., OD600 < 0.05). Relative MIC was calculated as follows:1 relativeMIC=MICevolved/MICancestor […]
Each data point represents a distinct
Boxplots show the median, first and third quartiles, with whiskers showing the 5th and 95th percentiles. P values were calculated using Dunn's post-hoc test with Benjamini-Hochberg correction (NS indicates p > 0.05, ** / **** indicates p < 0.01 […]
(§2) For detailed information on antibiotic and bacterial strain abbreviations, see Supplementary Table 1. Source data are provided as a Source […]
(§3) (1 picture or pasted object on this page, not shown here)

[2] = test system: P. aeruginosa ATCC BAA-3107 (SEN) and P. aeruginosa LESB58 (MDR); assay: Adaptive laboratory evolution (ALE), relative MIC of evolved lines; format: cell-based, Pseudomonas aeruginosa
Method in brief: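 Ten parallel populations per antibiotic–ancestor pair were evolved in MHB at 37 °C, starting near 50% growth-inhibiting drug. Every 72 h they were passaged into 0.5–2.5× increasing concentrations, keeping the highest-drug well with OD600 > 0.2.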

[3] = test system: polymyxin B-resistant lines of A. baumannii (AB-SEN); assay: Cross-resistance of polymyxin B resistant evolved lines, relative MIC; format: cell-based, Acinetobacter baumannii
Description: To further investigate potential overlaps in resistance mechanisms, we examined the extent of cross-resistance between polymyxin B and other antibiotics that target the bacterial membrane.
Fig. 7 Cross-resistance of polymyxin B resistant lines to ST and DT permeabilizer antibiotics. […] 3 independently evolved lines from each investigated species were studied, including E. coli (EC), K. pneumoniae (KP), A. baumannii (AB), and P. aeruginosa (PA). Gray color of the main heatmap indicates combinations not tested due to intrinsic resistance of ancestor strain. The additional heatmap to the right depicts genes mutated in each polymyxin B-adapted line and their involvement in specific cellular processes based on KEGG (Kyoto Encyclopedia of Genes and Genomes) and COG (Clusters of Orthologous Genes) databases. The distances between antibiotics were computed using the Euclidean distance method based on the log-transformed MIC values. The clustering was performed using the complete linkage method. […] For detailed information on antibiotic and bacterial strain abbreviations, see Supplementary Data 1. Source data are provided as a Source Data file.
as §1
Supplementary Figure 6. Susceptibility of Polymyxin B resistant lines to other ST and DT […]
dividing the MIC of the evolved line by that of the corresponding ancestor) of 12 polymyxin B resistant lines to ST and DT permeabilizer antibiotics used in this study. Each data point represents a distinct adaptive laboratory evolved polymyxin B resistant line. Boxplots show the median, first and third quartiles, with whiskers showing the 5th and 95th percentiles. P values were calculated using Dunn's post-hoc test with Benjamini-Hochberg correction (NS indicates p > 0.05, ** / **** indicates p < 0.01 / 0.0001, respectively). The resistance level of polymyxin B resistant lines to polymyxin B (PMB), […]
as §2, §3

CC(C)C[C@@H]1NC(=O)[C@@H](Cc2ccccc2)NC(=O)[C@H](CCN)NC(=O)[C@@H](NC(=O)[C@H](CN)NC(=O)[C@@H](NC(=O)C[C@H](CN)c2cccc(Cl)c2)[C@@H](C)O)CCNC(=O)[C@H]([C@@H](C)O)NC(=O)[C@H](CCN)NC(=O)[C@H](CCN)NC1=O [SPR206] (X1-T[Dap][Dab][Dab][dF]L[Dab][Dab]T; lactam 3-C (inferred); N-terminus assumed)
Relative MIC ([1]; EC-SEN, polymyxin B-resistant evolved line 4, MIC evolved/MIC ancestor): 32
Relative MIC ([1]; EC-SEN, polymyxin B-resistant evolved line 6, MIC evolved/MIC ancestor): 64
Relative MIC ([1]; EC-SEN, polymyxin B-resistant evolved line 10, MIC evolved/MIC ancestor): 64
Relative MIC ([1]; polymyxin B-resistant evolved line 4 of EC-SEN, MIC relative to ancestor): 32
Relative MIC ([1]; polymyxin B-resistant evolved line 6 of EC-SEN, MIC relative to ancestor): 64
Relative MIC ([1]; polymyxin B-resistant evolved line 10 of EC-SEN, MIC relative to ancestor): 64
Relative MIC ([2]; ALE, P. aeruginosa ATCC BAA 3107 (PA-SEN), evolved line 1): 16
Relative MIC ([2]; ALE, P. aeruginosa ATCC BAA 3107 (PA-SEN), evolved line 2): 32
Relative MIC ([2]; ALE, P. aeruginosa ATCC BAA 3107 (PA-SEN), evolved line 4): 16
Relative MIC ([2]; ALE, P. aeruginosa ATCC BAA 3107 (PA-SEN), evolved line 5): 16
Relative MIC ([2]; ALE, P. aeruginosa ATCC BAA 3107 (PA-SEN), evolved line 8): 8
Relative MIC ([2]; ALE, P. aeruginosa ATCC BAA 3107 (PA-SEN), evolved line 9): 32
Relative MIC ([2]; ALE, P. aeruginosa ATCC BAA 3107 (PA-SEN), evolved line 10): 2
Relative MIC ([2]; PA-MDR (LESB 58), evolved line 1, evolved vs ancestor): 16
Relative MIC ([2]; PA-MDR (LESB 58), evolved line 2, evolved vs ancestor): 16
Relative MIC ([2]; PA-MDR (LESB 58), evolved line 3, evolved vs ancestor): 16
Relative MIC ([2]; PA-MDR (LESB 58), evolved line 4, evolved vs ancestor): 8
Relative MIC ([2]; PA-MDR (LESB 58), evolved line 5, evolved vs ancestor): 16
Relative MIC ([2]; PA-MDR (LESB 58), evolved line 6, evolved vs ancestor): 32
Relative MIC ([2]; PA-MDR (LESB 58), evolved line 7, evolved vs ancestor): 16
Relative MIC ([2]; PA-MDR (LESB 58), evolved line 8, evolved vs ancestor): 4
Relative MIC ([2]; PA-MDR (LESB 58), evolved line 9, evolved vs ancestor): 16
Relative MIC ([2]; PA-MDR (LESB 58), evolved line 10, evolved vs ancestor): 32
MIC of evolved line ([2]; PA-MDR (LESB 58), evolved line 4): 32 µg/mL
MIC of evolved line ([2]; PA-MDR (LESB 58), evolved line 5): 64 µg/mL
MIC of evolved line ([2]; PA-MDR (LESB 58), evolved line 6): 128 µg/mL
MIC of evolved line ([2]; PA-MDR (LESB 58), evolved line 7): 64 µg/mL
MIC of evolved line ([2]; PA-MDR (LESB 58), evolved line 8): 16 µg/mL
MIC of evolved line ([2]; PA-MDR (LESB 58), evolved line 9): 64 µg/mL
MIC of evolved line ([2]; PA-MDR (LESB 58), evolved line 10): 128 µg/mL
Relative MIC (log10) ([2]; PA-MDR (Pseudomonas aeruginosa LESB 58), evolved line 1): 1.204 log10
Relative MIC (log10) ([2]; PA-MDR (Pseudomonas aeruginosa LESB 58), evolved line 6): 1.505 log10
MIC of evolved line ([2]; PA-MDR LESB 58, evolved line 1): 64 µg/mL
MIC of evolved line ([2]; PA-MDR LESB 58, evolved line 2): 64 µg/mL
MIC of evolved line ([2]; PA-MDR LESB 58, evolved line 3): 64 µg/mL
Relative MIC (log10) ([2]; PA-MDR, Pseudomonas aeruginosa LESB 58, evolved line 9): 1.204 log10
Relative MIC (log10) ([2]; PA-MDR, Pseudomonas aeruginosa LESB 58, evolved line 10): 1.505 log10
Relative MIC (log10) ([2]; PA-MDR, Pseudomonas aeruginosa LESB 58, evolved line 3): 1.204 log10
Relative MIC ([2]; PA-SEN (ATCC BAA 3107), evolved line 1, evolved vs ancestor): 16
Relative MIC ([2]; PA-SEN (ATCC BAA 3107), evolved line 2, evolved vs ancestor): 32
Relative MIC ([2]; PA-SEN (ATCC BAA 3107), evolved line 4, evolved vs ancestor): 16
Relative MIC ([2]; PA-SEN (ATCC BAA 3107), evolved line 5, evolved vs ancestor): 16
Relative MIC ([2]; PA-SEN (ATCC BAA 3107), evolved line 8, evolved vs ancestor): 8
Relative MIC ([2]; PA-SEN (ATCC BAA 3107), evolved line 9, evolved vs ancestor): 32
Relative MIC ([2]; PA-SEN (ATCC BAA 3107), evolved line 10, evolved vs ancestor): 2
MIC of evolved line ([2]; PA-SEN (ATCC BAA 3107), evolved line 2): 32 µg/mL
MIC of evolved line ([2]; PA-SEN (ATCC BAA 3107), evolved line 4): 16 µg/mL
MIC of evolved line ([2]; PA-SEN (ATCC BAA 3107), evolved line 5): 16 µg/mL
MIC of evolved line ([2]; PA-SEN (ATCC BAA 3107), evolved line 8): 8 µg/mL
MIC of evolved line ([2]; PA-SEN (ATCC BAA 3107), evolved line 9): 32 µg/mL
MIC of evolved line ([2]; PA-SEN (ATCC BAA 3107), evolved line 10): 2 µg/mL
MIC of evolved line ([2]; PA-SEN ATCC BAA 3107, evolved line 1): 16 µg/mL
Relative MIC (log10) ([2]; PA-SEN, Pseudomonas aeruginosa ATCC BAA 3107, evolved line 1): 1.204 log10
Relative MIC (log10) ([2]; PA-SEN, Pseudomonas aeruginosa ATCC BAA 3107, evolved line 2): 1.505 log10
Relative MIC (log10) ([2]; PA-SEN, Pseudomonas aeruginosa ATCC BAA 3107, evolved line 4): 1.204 log10
Relative MIC (log10) ([2]; PA-SEN, Pseudomonas aeruginosa ATCC BAA 3107, evolved line 5): 1.204 log10
Relative MIC (log10) ([2]; PA-SEN, Pseudomonas aeruginosa ATCC BAA 3107, evolved line 9): 1.505 log10
Relative MIC ([2]; Pseudomonas aeruginosa ATCC BAA 3107 (PA-SEN), evolved line 1): 16
Relative MIC ([2]; Pseudomonas aeruginosa ATCC BAA 3107 (PA-SEN), evolved line 2): 32
Relative MIC ([2]; Pseudomonas aeruginosa ATCC BAA 3107 (PA-SEN), evolved line 4): 16
Relative MIC ([2]; Pseudomonas aeruginosa ATCC BAA 3107 (PA-SEN), evolved line 5): 16
Relative MIC ([2]; Pseudomonas aeruginosa ATCC BAA 3107 (PA-SEN), evolved line 8): 8
Relative MIC ([2]; Pseudomonas aeruginosa ATCC BAA 3107 (PA-SEN), evolved line 9): 32
Relative MIC ([2]; Pseudomonas aeruginosa ATCC BAA 3107 (PA-SEN), evolved line 10): 2
Relative MIC ([2]; Pseudomonas aeruginosa LESB 58 (PA-MDR), evolved line 1): 16
Relative MIC ([2]; Pseudomonas aeruginosa LESB 58 (PA-MDR), evolved line 2): 16
Relative MIC ([2]; Pseudomonas aeruginosa LESB 58 (PA-MDR), evolved line 3): 16
Relative MIC ([2]; Pseudomonas aeruginosa LESB 58 (PA-MDR), evolved line 4): 8
Relative MIC ([2]; Pseudomonas aeruginosa LESB 58 (PA-MDR), evolved line 5): 16
Relative MIC ([2]; Pseudomonas aeruginosa LESB 58 (PA-MDR), evolved line 6): 32
Relative MIC ([2]; Pseudomonas aeruginosa LESB 58 (PA-MDR), evolved line 7): 16
Relative MIC ([2]; Pseudomonas aeruginosa LESB 58 (PA-MDR), evolved line 8): 4
Relative MIC ([2]; Pseudomonas aeruginosa LESB 58 (PA-MDR), evolved line 9): 16
Relative MIC ([2]; Pseudomonas aeruginosa LESB 58 (PA-MDR), evolved line 10): 32
Relative MIC ([3]; AB-SEN, polymyxin B-resistant evolved line 2, MIC evolved/MIC ancestor): 128
Relative MIC ([3]; AB-SEN, polymyxin B-resistant evolved line 6, MIC evolved/MIC ancestor): 2048
Relative MIC ([3]; AB-SEN, polymyxin B-resistant evolved line 9, MIC evolved/MIC ancestor): 128
Relative MIC ([3]; polymyxin B-resistant evolved line 2 of AB-SEN, MIC relative to ancestor): 128
Relative MIC ([3]; polymyxin B-resistant evolved line 6 of AB-SEN, MIC relative to ancestor): 2048
Relative MIC ([3]; polymyxin B-resistant evolved line 9 of AB-SEN, MIC relative to ancestor): 128
